pIC50: −log10 of the molar value.
Tested on: Plasmodium berghei
Assay: Luciferase/luciferin-expressing antifolate-resistant parasites were used to infect a culture of HepG2 cells that were pre-incubated with compounds. Infected hepatocytes emit light due to the luciferase reaction. Assay results are presented as the percent inhibition of light emission compared to control. […]
Type: functional
Details: sporozoite; for IC90: read-out: LUCIFERASE INFECTION ASSAY - IC90

For `FC(F)(F)c1nc2ccccc2n2c(-c3ccc(Cl)cc3)nnc12`, the pIC50 (HEPG2TOX_HILL_SLOPE 11.7, HEPG2TOX_R_SQUARED 0.937, PBLUC_HILL_SLOPE 49.4, PBLUC_R_SQUARED 0.195, read-out: LUCIFERASE INFECTION ASSAY - IC50) was 5.50 and the IC90 was 3.27 µM.
`COc1ccccc1C(=O)/C=C/c1ccc(N2CCCCC2)c([N+](=O)[O-])c1` was tested, and the pIC50 (HEPG2TOX_HILL_SLOPE 11.8, HEPG2TOX_R_SQUARED 0.223, read-out: LUCIFERASE INFECTION ASSAY - IC50) was < 5.00 and the IC90 was > 10 µM.
In the case of `O=C(Cn1ncc(Cl)c(Cl)c1=O)N1CCN(S(=O)(=O)c2ccc3ccccc3c2)CC1`, the pIC50 (HEPG2TOX_HILL_SLOPE 11.9, 3.77, HEPG2TOX_R_SQUARED 0.663, 0.998, PBLUC_HILL_SLOPE 2.89, PBLUC_R_SQUARED 0.527, read-out: LUCIFERASE INFECTION ASSAY - IC50) was 5.29 and the IC90 was > 10 µM.
Work on `CC1CCCC(C)N1CC(O)COC1CCC(C(C)(C)C)CC1` (configuration not stated) yielded a pIC50 (HEPG2TOX_HILL_SLOPE 11.8, HEPG2TOX_R_SQUARED 0.0956, PBLUC_HILL_SLOPE 13.2, PBLUC_R_SQUARED 0.651, read-out: LUCIFERASE INFECTION ASSAY - IC50) of 5.51 and an IC90 of 3.62 µM.
`O=C(Nc1ccc(F)cc1F)c1cc(Br)ccc1O` gave a pIC50 (HEPG2TOX_HILL_SLOPE 11.9, HEPG2TOX_R_SQUARED 0.641, PBLUC_HILL_SLOPE 14.3, PBLUC_R_SQUARED 0.252, read-out: LUCIFERASE INFECTION ASSAY - IC50) of 5.08 and an IC90 of 9.77 µM.
For `Cc1ccc(SC(=O)c2c(C)noc2-c2ccc(Cl)cc2)cc1`, the pIC50 (HEPG2TOX_HILL_SLOPE 11.7, HEPG2TOX_R_SQUARED 0.856, PBLUC_HILL_SLOPE 3.58, PBLUC_R_SQUARED 0.522, read-out: LUCIFERASE INFECTION ASSAY - IC50) was 5.12 and the IC90 was > 9.6 µM.
With `CC(=O)Nc1ccc(-c2ccnc3n[nH]c(-c4ccsc4)c23)cc1` the pIC50 (HEPG2TOX_HILL_SLOPE 11.6, HEPG2TOX_R_SQUARED 0.801, PBLUC_HILL_SLOPE 2.91, PBLUC_R_SQUARED 0.114, read-out: LUCIFERASE INFECTION ASSAY - IC50) was 5.39 and the IC90 was 8.76 µM.
For `COc1ccccc1C(=O)c1cnc(Nc2cccc(Cc3ccccc3)c2)[nH]1`, the pIC50 (HEPG2TOX_HILL_SLOPE 11.7, HEPG2TOX_R_SQUARED 0.773, PBLUC_HILL_SLOPE 15.1, PBLUC_R_SQUARED 0.204, read-out: LUCIFERASE INFECTION ASSAY - IC50) was 5.11 and the IC90 was > 8.61 µM.
`O=[N+]([O-])c1cc(C(F)(F)F)ccc1Sc1nnc(-c2cc(Cl)cc(Cl)c2)[nH]1` was tested, and the pIC50 (HEPG2TOX_HILL_SLOPE 11.8, HEPG2TOX_R_SQUARED 0.697, PBLUC_HILL_SLOPE 13.2, PBLUC_R_SQUARED 0.063, read-out: LUCIFERASE INFECTION ASSAY - IC50) was 5.22 and the IC90 was 7.2 µM.
For `Cc1cc(O)cc2c1C(=O)/C(=C/c1ccc(Cl)cc1)O2`, the pIC50 (HEPG2TOX_HILL_SLOPE 11.8, HEPG2TOX_R_SQUARED 0.8, PBLUC_HILL_SLOPE 6.24, PBLUC_R_SQUARED 0.404, read-out: LUCIFERASE INFECTION ASSAY - IC50) was 5.23 and the IC90 was 8.29 µM.
Molecule `C(=C(c1nc2ccccc2s1)c1nc2ccccc2s1)c1ccncc1` has a pIC50 (HEPG2TOX_HILL_SLOPE 11.7, HEPG2TOX_R_SQUARED 0.737, PBLUC_HILL_SLOPE 3.59, 2.80, PBLUC_R_SQUARED 0.729, 0.898, read-out: LUCIFERASE INFECTION ASSAY - IC50) of 5.51 and an IC90 of 6.3 µM.
`Cc1ccc(NC(=O)Cn2nnc(-c3ccccc3)n2)cc1S(=O)(=O)N1CCCCCC1` was tested, and the pIC50 (HEPG2TOX_HILL_SLOPE 11.8, HEPG2TOX_R_SQUARED 0.86, PBLUC_HILL_SLOPE 22, PBLUC_R_SQUARED 0.334, read-out: LUCIFERASE INFECTION ASSAY - IC50) was 5.04 and the IC90 was > 10 µM.
In the case of `COc1cccc(-c2cc3c(Nc4ccc(Oc5ccccc5)cc4)nccc3[nH]2)c1`, the pIC50 (HEPG2TOX_HILL_SLOPE 11.8, HEPG2TOX_R_SQUARED 0.973, PBLUC_HILL_SLOPE 14.2, PBLUC_R_SQUARED 0.35, read-out: LUCIFERASE INFECTION ASSAY - IC50) was 5.46 and the IC90 was 4 µM.
With `COC(=O)c1sc(S(C)(=O)=O)c(C#N)c1-c1cccs1` the pIC50 (HEPG2TOX_HILL_SLOPE 11.8, HEPG2TOX_R_SQUARED 0.984, PBLUC_HILL_SLOPE 123, PBLUC_R_SQUARED 0.486, read-out: LUCIFERASE INFECTION ASSAY - IC50) was 5.30 and the IC90 was 5.13 µM.
`C=c1ccccc1=C1NN=C(Sc2cnn(-c3ccc(C(F)(F)F)cn3)c(=O)c2Cl)N1CC` gave a pIC50 (HEPG2TOX_HILL_SLOPE 11.7, 13.0, HEPG2TOX_R_SQUARED 0.881, 0.478, PBLUC_HILL_SLOPE 8.47, PBLUC_R_SQUARED 0.136, read-out: LUCIFERASE INFECTION ASSAY - IC50) of 5.39 and an IC90 of 5.32 µM.
With `CCCCCn1c(Sc2ncc([N+](=O)[O-])s2)n[nH]c1=O` the pIC50 (HEPG2TOX_HILL_SLOPE 11.8, HEPG2TOX_R_SQUARED 0.641, PBLUC_HILL_SLOPE 4, PBLUC_R_SQUARED 0.202, read-out: LUCIFERASE INFECTION ASSAY - IC50) was 5.15 and the IC90 was > 10.5 µM.
For `Cc1cc(Cl)ccc1OCc1nnc(-c2ccccn2)[nH]1`, the pIC50 (HEPG2TOX_HILL_SLOPE 11.7, HEPG2TOX_R_SQUARED 0.29, PBLUC_HILL_SLOPE 34.3, PBLUC_R_SQUARED 0.372, read-out: LUCIFERASE INFECTION ASSAY - IC50) was 5.47 and the IC90 was 3.63 µM.
`O=C(Nc1cccc(Cl)c1)c1cccc(NC(=O)c2cccs2)c1` showed a pIC50 (HEPG2TOX_HILL_SLOPE 11.6, HEPG2TOX_R_SQUARED 0.635, PBLUC_HILL_SLOPE 2.89, PBLUC_R_SQUARED 0.488, read-out: LUCIFERASE INFECTION ASSAY - IC50) of 5.36 and an IC90 of 9.24 µM.
Molecule `CCCNC(=O)/C(=C\c1cccc(Br)c1)c1nc2ccccc2[nH]1` has a pIC50 (HEPG2TOX_HILL_SLOPE 11.6, HEPG2TOX_R_SQUARED 0.535, PBLUC_HILL_SLOPE 4.15, PBLUC_R_SQUARED 0.775, read-out: LUCIFERASE INFECTION ASSAY - IC50) of 5.25 and an IC90 of 9.54 µM.
In the case of `CCN1C(=O)N(Cc2cccc(OC)c2)C(=O)C12CCN(Cc1ccc3c(c1)Cc1ccccc1-3)CC2`, the pIC50 (HEPG2TOX_HILL_SLOPE 11.9, HEPG2TOX_R_SQUARED 0.897, PBLUC_HILL_SLOPE 2.37, PBLUC_R_SQUARED 0.639, read-out: LUCIFERASE INFECTION ASSAY - IC50) was 5.48 and the IC90 was > 6.66 µM.
For `O=C(Nc1cc(Cl)cc(Cl)c1)Nc1cccnc1N1CCC(C(F)(F)F)CC1`, the pIC50 (HEPG2TOX_HILL_SLOPE 11.8, HEPG2TOX_R_SQUARED 0.784, PBLUC_HILL_SLOPE 19.7, PBLUC_R_SQUARED 0.439, read-out: LUCIFERASE INFECTION ASSAY - IC50) was 5.60 and the IC90 was 2.83 µM.
`CS(=O)(=O)c1ccc(C(=O)Nc2ccc(S(=O)(=O)NCc3ccco3)cc2)cc1[N+](=O)[O-]` was tested, and the pIC50 (HEPG2TOX_HILL_SLOPE 11.7, HEPG2TOX_R_SQUARED 0.595, read-out: LUCIFERASE INFECTION ASSAY - IC50) was < 5.00 and the IC90 was > 10 µM.
For `O=C(Nc1ccccc1)Nc1ccc(C(=O)Nc2cc(C(F)(F)F)ccc2N2CCOCC2)s1`, the pIC50 (HEPG2TOX_HILL_SLOPE 11.7, HEPG2TOX_R_SQUARED 0.346, PBLUC_HILL_SLOPE 5.22, 24.2, PBLUC_R_SQUARED 0.290, 0.170, read-out: LUCIFERASE INFECTION ASSAY - IC50) was 5.37 and the IC90 was 5.82 µM.
`CCOc1ccc(C(=O)Nc2ccc(N(CC)CC)cc2)cc1Br` showed a pIC50 (HEPG2TOX_HILL_SLOPE 11.9, HEPG2TOX_R_SQUARED 0.281, PBLUC_HILL_SLOPE 11.4, PBLUC_R_SQUARED 0.34, read-out: LUCIFERASE INFECTION ASSAY - IC50) of 5.53 and an IC90 of 3.6 µM.
With `O=C(c1cc2ccccc2cc1O)N1CCN(Cc2ccc3c(c2)OCO3)CC1` the pIC50 (HEPG2TOX_HILL_SLOPE 11.9, HEPG2TOX_R_SQUARED 0.324, PBLUC_HILL_SLOPE 2.98, 3.06, PBLUC_R_SQUARED 0.831, 0.940, read-out: LUCIFERASE INFECTION ASSAY - IC50) was 5.36 and the IC90 was 8.06 µM.
`CN(C)S(=O)(=O)c1ccc2oc(SCC(=O)Nc3cc(C(C)(C)C)no3)nc2c1` showed a pIC50 (HEPG2TOX_HILL_SLOPE 11.6, HEPG2TOX_R_SQUARED 0.793, PBLUC_HILL_SLOPE 13.5, PBLUC_R_SQUARED 0.437, read-out: LUCIFERASE INFECTION ASSAY - IC50) of 5.47 and an IC90 of 3.96 µM.
In the case of `O=C(/C=C/c1cccc([N+](=O)[O-])c1)c1cccc(N2CCCC2=O)c1`, the pIC50 (HEPG2TOX_HILL_SLOPE 11.8, HEPG2TOX_R_SQUARED 0.912, PBLUC_HILL_SLOPE 14.2, PBLUC_R_SQUARED 0.853, read-out: LUCIFERASE INFECTION ASSAY - IC50) was 5.39 and the IC90 was 4.73 µM.
In the case of `Cc1cccc(Cn2c(CN3CCCCC3)nc3ccccc32)c1`, the pIC50 (HEPG2TOX_HILL_SLOPE 11.8, HEPG2TOX_R_SQUARED 0.182, PBLUC_HILL_SLOPE 4.42, PBLUC_R_SQUARED 0.595, read-out: LUCIFERASE INFECTION ASSAY - IC50) was 5.22 and the IC90 was 9.84 µM.
`Cn1c(-c2ccsc2)cc2c(Nc3ccc(Oc4ccccc4)cc3)nccc21` gave a pIC50 (HEPG2TOX_HILL_SLOPE 11.7, HEPG2TOX_R_SQUARED 0.553, PBLUC_HILL_SLOPE 10.6, PBLUC_R_SQUARED 0.752, read-out: LUCIFERASE INFECTION ASSAY - IC50) of 5.55 and an IC90 of 3.44 µM.
In the case of `CC1CC(C)CN(Cc2ccc(C(=O)Nc3ccccc3)cc2)C1` (configuration not stated), the pIC50 (HEPG2TOX_HILL_SLOPE 11.8, HEPG2TOX_R_SQUARED 0.877, PBLUC_HILL_SLOPE 2.66, PBLUC_R_SQUARED 0.557, read-out: LUCIFERASE INFECTION ASSAY - IC50) was 5.48 and the IC90 was 7.47 µM.
With `O=C1/C(=C/c2ccc(C(F)(F)F)cc2)CCC/C1=C\c1ccc(C(F)(F)F)cc1` the pIC50 (HEPG2TOX_HILL_SLOPE 11.7, HEPG2TOX_R_SQUARED 0.984, PBLUC_HILL_SLOPE 3.19, PBLUC_R_SQUARED 0.77, read-out: LUCIFERASE INFECTION ASSAY - IC50) was 5.40 and the IC90 was 7.87 µM.
